Experimental data from publication PMC7307930, “Stereoselective Activity of 1-Propargyl-4-styrylpiperidine-like Analogues That Can Discriminate between Monoamine Oxidase Isoforms A and B” (Journal of Medicinal Chemistry, 2020).

Tests used:
MAO-A/B = experiment: In vitro MAO inhibition in mouse brain homogenate, p-tyramine substrate; type: biochemical; conditions: 50 μM compound, homogenate from nontreated mice
Swiss mice [1] = experiment: Tail suspension test; type: in vivo, mouse
Procedure: The antidepressant-like activity was screened with the widely used tail suspension test. At 30 min before the behavioral assays, the mice were treated with 6, 67, and 69 at 3 mg/kg and 10 mg/kg ip, with 69 also at 1 mg/kg and 30 mg/kg ip, or were injected with 0.9% saline as control. Imipramine (30 mg/kg ip) was used as the reference drug.
(A) Effects of acute ip treatment with 6 (3, 10 mg/kg, n = 13, 9), 67 (3, 10 mg/kg, n = 6, 10), and 69 (1, 3, 10, 30 mg/kg, n = 8, 7, 8, 6) and imipramine (30 mg/kg, n = 8) in the tail suspension test. […] (B) Effects of acute ip treatment with 6 (3, 10 mg/kg, n = 8, 8), 67 (1, 3, 6 mg/kg; n = 5, 5, 5), and 69 (1, 3, 6 mg/kg, n = 10, 5, 5) on locomotor activity of the mice. […] (C) Effects of 10-day chronic ip treatment with 69 (0.3 mg/kg, daily; n = 10) in the tail suspension test. Data are mean values ± SEM of the immobility time, compared to control mice (n = 8): ∗∗, p < 0.01 (unpaired t-test). […]
quality control sample every seven test samples. The absolute matrix effect was checked by comparing the analyte responses in the standard solutions to the samples spiked in the tissue incubation medium from the control experiment without the analyte, and a deviation of less than ±20% was deemed acceptable.
4.2.10In vitro radioligand binding assay
Rats were humanely killed by decapitation and their brains were removed, washed and rapidly dissected on ice. Homogenisation was performed using a homogeniser (PRO Scientific Inc) at 30,000 rpm for 1 min. For 5-HT1A binding assays, the cortex tissues were homogenised in 30 volumes/weight ice-cold 50 mM Tris–HCl buffer (pH 7.4), and the homogenate was centrifuged at 40,000× g for 15 min at 0 °C to 4 °C. The resulting pellets were resuspended in 30 volumes/weight of the same buffer, and incubated at 37 °C for 20 min. The centrifugation step was repeated twice under the same conditions as described above, and the final pellets were resuspended in 30 volumes/weight 50 mM Tris–HCl buffer (pH 7.4), and stored at –80 […]
For the [3H]-8-OH-DPAT binding assay (the 5-HT1A receptor binding assay), the membranes were thawed and resuspended in 50 mM Tris–HCl (pH 7.4) with 1 mM MnCl2, to a final protein concentration of 0.5 mg/mL. The incubation was carried out at 25 °C for 1 h in a final volume of 1 mL membrane suspension in the presence of the sample assayed and with 0.2 nM [3H]-8-OH-DPAT (170.2 Ci/mmol). Serotonin was used as the positive control. Non-specific binding was determined in parallel incubations in the presence of serotonin (10 μM).
4.2.11 Tail suspension test
The tail suspension test was carried out according to the methodology proposed by Steru and co-workers.22 The mice were individually suspended by the tail from a metal hook (distance

Swiss mice [2] = experiment: Body mass and survival during 10-day treatment; type: in vivo; conditions: 0.3 mg/kg ip daily
Procedure: Figure S9. In vivo effects of chronic treatment on body mass. Body mass variation (Percent weight) (mean ±SEM) in mice throughout the 10-day i.p. treatment with 69 (0.3 mg/kg; n = 10), 100 (0.3 mg/kg; n = 8) and saline (SAL; n = 16). Data are means ±SEM. All animals survived the treatments.

Swiss mice [3] = experiment: Elevated plus maze test; type: in vivo, mouse
[4] = In vitro permeability, rat intestine in diffusion chambers; type: in vitro ADME
[5] = Thermodynamic solubility in PBS; type: physicochemical; conditions: PBS (pH 7.4), 37 °C, 24 h, hydrochloride salts
5-HT1A receptor = target: T1, 5-HT1A receptor (Rattus norvegicus, UniProt P19327); experiment: [3H]-8-OH-DPAT radioligand binding assay, rat cortex membranes; conditions: for Ki: [3H]-8-OH-DPAT binding, means ±SEM
T1 construct: from tissue; host or cells: rat (male Wistar) brain cortex membranes
T1 sequence (P19327 1-422): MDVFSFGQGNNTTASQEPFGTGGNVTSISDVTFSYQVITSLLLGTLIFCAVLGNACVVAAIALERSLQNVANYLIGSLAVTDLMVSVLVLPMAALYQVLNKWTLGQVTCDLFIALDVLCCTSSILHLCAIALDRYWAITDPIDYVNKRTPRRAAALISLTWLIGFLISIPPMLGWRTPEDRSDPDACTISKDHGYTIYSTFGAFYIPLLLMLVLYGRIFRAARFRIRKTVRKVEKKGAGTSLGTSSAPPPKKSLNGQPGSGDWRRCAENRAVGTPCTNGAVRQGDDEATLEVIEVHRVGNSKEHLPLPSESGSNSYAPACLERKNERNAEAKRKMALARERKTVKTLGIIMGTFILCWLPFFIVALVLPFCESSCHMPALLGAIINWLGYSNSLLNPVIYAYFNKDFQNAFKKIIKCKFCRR

Swiss mice [6] = experiment: Locomotor activity test; type: in vivo, mouse
[7] = Chemical stability and photoisomerization by proton NMR in D2O; type: physicochemical; conditions: hydrochloride salts, more than 1 year at room temperature protected from sunlight, 1H NMR in D2O
Procedure: Possible chemical instability and photoisomerization of E/Z isomers were also addressed as these are known liabilities of stilbene derivatives.[23] Proton NMRs of 69 (cis derivative), 84 (trans derivative), and 100 (ethyl analogue) in the form of hydrochloride salts were recorded in D2O (Figures S1–S3). […] The samples dissolved in the NMR tubes were then left on the benchtop exposed to natural daylight for 7 days, which could induce photoisomerization. […] Altogether, these studies imply reasonable stability of the compounds.
Figure S2. […] Compound 84 (trans isomer, […]
hydrochloride salt) was dissolved in D2O and the spectra were recorded at time 0 h, 1 h, 24 h and 7 days. Sample was exposed to day light in between the measurement, which could induce photoisomerization and potentially also chemical degradation.
The sample was previously stored at […]

SH-SY5Y cells [8] = experiment: MTS cytotoxicity assay; conditions: 24 h, 5 μM and 10 μM
Swiss mice [9] = experiment: Hole–board test
hMAO-A = target: T2, hMAO-A (Homo sapiens, UniProt P21397); experiment: hMAO-A inhibition, HRP–Amplex Red coupled fluorimetric assay; type: biochemical; conditions: supplement csv; RA at 100 micromolar
T2 construct: purchased Sigma Aldrich; host or cells: baculovirus-infected insect cells (BTI-TN-5B1-4)
T2 sequence (P21397 1-527): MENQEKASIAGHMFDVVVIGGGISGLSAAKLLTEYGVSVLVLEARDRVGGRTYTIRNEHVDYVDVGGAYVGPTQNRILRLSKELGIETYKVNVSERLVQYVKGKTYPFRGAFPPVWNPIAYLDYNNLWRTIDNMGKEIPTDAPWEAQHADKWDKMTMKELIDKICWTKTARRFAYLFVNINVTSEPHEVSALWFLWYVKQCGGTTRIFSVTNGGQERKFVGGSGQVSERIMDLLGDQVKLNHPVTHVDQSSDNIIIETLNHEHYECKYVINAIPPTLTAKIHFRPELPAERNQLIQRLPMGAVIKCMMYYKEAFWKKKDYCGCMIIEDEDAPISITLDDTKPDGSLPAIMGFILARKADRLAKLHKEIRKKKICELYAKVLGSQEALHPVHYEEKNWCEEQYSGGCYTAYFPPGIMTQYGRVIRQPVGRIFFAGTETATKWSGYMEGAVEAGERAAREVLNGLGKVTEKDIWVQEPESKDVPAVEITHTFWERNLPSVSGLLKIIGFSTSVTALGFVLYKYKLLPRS

Swiss mice [10] = experiment: Haloperidol-induced catalepsy test; type: in vivo, mouse
MAO-B [11] = target: T3, MAO-B (Mus musculus, UniProt Q8BW75); experiment: Ex vivo MAO inhibition in brain homogenates of treated mice, benzylamine substrate; conditions: 10 days 0.3 mg/kg ip, with or without haloperidol, two-way ANOVA
T3 construct: Brain homogenates from male Swiss mice were first characterized in terms of their MAOs activity; from tissue; host or cells: whole brain homogenate of male Swiss mice
T3 sequence (Q8BW75 1-520): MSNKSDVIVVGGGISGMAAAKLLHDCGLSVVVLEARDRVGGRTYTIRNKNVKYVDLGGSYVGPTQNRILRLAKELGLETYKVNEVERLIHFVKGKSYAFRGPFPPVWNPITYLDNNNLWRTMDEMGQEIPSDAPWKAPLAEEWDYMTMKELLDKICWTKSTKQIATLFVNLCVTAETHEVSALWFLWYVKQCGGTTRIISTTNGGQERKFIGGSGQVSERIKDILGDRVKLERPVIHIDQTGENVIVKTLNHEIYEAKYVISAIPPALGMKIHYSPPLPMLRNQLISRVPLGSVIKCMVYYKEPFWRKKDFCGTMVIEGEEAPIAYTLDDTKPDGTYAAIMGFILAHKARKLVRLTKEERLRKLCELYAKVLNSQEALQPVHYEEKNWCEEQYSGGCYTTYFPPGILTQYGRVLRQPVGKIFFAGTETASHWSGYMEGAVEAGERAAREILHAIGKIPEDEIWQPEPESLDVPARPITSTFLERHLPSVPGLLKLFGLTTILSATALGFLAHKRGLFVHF

SH-SY5Y cells [12] = experiment: LDH release, 6-OHDA-induced toxicity; conditions: 100 μM 6-OHDA, 24 h
MAO-B [13] = target: T3, MAO-B; experiment: In vitro MAO inhibition in mouse brain homogenate, benzylamine substrate; type: biochemical; conditions: substrate of MAO B, control mouse brain homogenates

C#CCN1CCC(/C=C\c2cccc(F)c2)CC1 [Compound 69, (Z)-4-(3-Fluorostyryl)-1-(prop-2-yn-1-yl)piperidine]
residual activity, p-tyramine (0.5 mM), in vitro (MAO-A/B): 31.3 ± 0.2% | immobility time, chronic treatment (Swiss mice [1]; 10-day, 0.3 mg/kg ip daily): significantly decreased the immobility time | immobility time, acute treatment (Swiss mice [1]; ip 30 min before, 6, 67 at 3 and 10 mg/kg, 69 at 1, 3, 10, 30 mg/kg, imipramine 30 mg/kg): did not decrease the immobility time | body mass variations versus control mice (Swiss mice [2]): No significant differences | Time in centre (%) (Swiss mice [3]; 10-day treatment, 0.3 mg/kg): 28.8 ±4.5% | Time in open arms (%) (Swiss mice [3]; 10-day treatment, 0.3 mg/kg): 11.8 ±3.7% | effects in the elevated plus maze, chronic low dose (Swiss mice [3]; 10-day, 0.3 mg/kg ip daily): No significant effects | Open arm entries (%) (Swiss mice [3]; acute ip, 1 mg/kg): 15.9 ±5.1% | Time in centre (%) (Swiss mice [3]; acute ip, 1 mg/kg): 36.4 ±7.7% | Total arm entries (Swiss mice [3]; acute ip, 1 mg/kg): 17.4 ±2.5 | Open arm entries (%) (Swiss mice [3]; acute ip, 3 mg/kg): 28.0 ±2.9% | Time in centre (%) (Swiss mice [3]; acute ip, 3 mg/kg): 38.0 ±2.9% | Time in open arms (%) (Swiss mice [3]; acute ip, 3 mg/kg): 19.8 ±1.6% | Total arm entries (Swiss mice [3]; acute ip, 3 mg/kg): 22.9 ±1.6 | Open arm entries (%) (Swiss mice [3]; acute ip, 6 mg/kg): 13.3 ±1.2% | Time in centre (%) (Swiss mice [3]; acute ip, 6 mg/kg): 41.4 ±4.1% | Time in open arms (%) (Swiss mice [3]; acute ip, 6 mg/kg): 7.1 ±1.6% | Total arm entries (Swiss mice [3]; acute ip, 6 mg/kg): 20.4 ±1.3 | Papp A→B at 50 µM ([4]; male, Sprague-Dawley, pH 7.4, rat intestine, 50 μM donor, mean ± SEM, read-out: apparent permeability coefficient, absorptive direction): 10.8 ± 1.3 ×10⁻⁶ cm/s | Papp B→A at 50 µM ([4]; male, Sprague-Dawley, pH 7.4, rat intestine, 50 μM donor, mean ± SEM, read-out: apparent permeability coefficient, eliminatory direction): 35.4 ± 9.9 ×10⁻⁶ cm/s | permeability classification ([4]; rat intestine in vitro): intermediate/moderate permeability | thermodynamic solubility [5]: ≥ 8.6 g/250 mL | Ki (5-HT1A receptor): 1.7 ± 0.12 µM | inhibition at 300 µM (5-HT1A receptor; read-out: Inhibition at 300 µM): 92% | locomotor activity (Swiss mice [6]; 10-day treatment, 0.3 mg/kg, 5-min session): 598.3 ±14.7 counts | effects in the locomotor activity test, chronic low dose (Swiss mice [6]; 10-day, 0.3 mg/kg ip daily): No significant effects | locomotion (Swiss mice [6]; acute 3 mg/kg ip): not altered | chemical stability on storage [7]: no signs of chemical instability | cytotoxic effects (SH-SY5Y cells [8]): no significant cytotoxic effects

C#CCN1CCC(CCc2ccc(C(F)(F)F)cc2)CC1 [Compound 100, 1-(Prop-2-yn-1-yl)-4-(4-(trifluoromethyl)phenethyl)piperidine]
residual activity, p-tyramine (0.5 mM), in vitro (MAO-A/B): 59.4 ± 0.2% | parameters of the hole–board test (Swiss mice [9]; 10 days, 0.3 mg/kg ip daily): did not affect | hole–board test parameters (Swiss mice [9]; acute ip doses of ≥10 mg/kg): reduced | body mass variations versus control mice (Swiss mice [2]): No significant differences | IC50(MAO-A) class (hMAO-A): na (na-not_active(RA_at_100micromolar>50%)) | latency time to descent from the bar (Swiss mice [10]; 10-day i.p. 0.3 mg/kg daily): increased significantly | reversal of haloperidol-induced catalepsy (Swiss mice [10]; acute i.p. 3 mg/kg): did not reverse the catalepsy | ex vivo MAO-B activity after haloperidol-induced catalepsy test (MAO-B [11]): decreased MAO-B activity | thermodynamic solubility [5]: ≥ 16.3 g/250 mL | Ki (5-HT1A receptor): 25.9 ± 1.5 µM | locomotor activity (Swiss mice [6]; 10 days, 0.3 mg/kg ip daily): did not affect | locomotor activities (Swiss mice [6]; acute ip doses of ≥10 mg/kg): reduced | chemical stability on storage [7]: no signs of chemical instability | cytotoxic effects (SH-SY5Y cells [8]): no significant cytotoxic effects

NCCc1cc(O)c(O)cc1O [6-OHDA, 6-hydroxydopamine]
LDH release vs control (SH-SY5Y cells [12]): 135%

NCc1ccccc1 [Benzylamine]
K0.5 (MAO-B [13]): 0.268 ± 0.017 mM
